# Tests used:
# Naïve wistar rats = experiment: Drug tolerability study, seven-day osmotic pump; format: in vivo, rat
# Procedure: Pumps were filled with either Z944 to deliver a daily dose of 60 mg/kg, levetiracetam to deliver a daily dose of 200 mg/kg or vehicle. For the drug tolerability study, osmotic pumps continuously either Z944, levetiracetam or vehicle for 7 days and for the post-SE study osmotic pumps delivered continuously the different treatments for 28 days.
# The neurological side effects of the prolonged administration of Z944 and levetiracetam were assessed over one-week. Naïve wistar rats aged 11 weeks were implanted with a seven-day osmotic pump with Z944 (60 mg/kg/day, n=6), levetiracetam (200 mg/kg/day, n=5) and vehicle (n=6). The animals were evaluated twice per day, morning and afternoon, for side effects from the day of pump implantation to 8 days after.
# fully kindled rats = experiment: Amygdala kindling model, anti-seizure testing in fully kindled rats; format: in vivo, rat
# Procedure: Animals were implanted with EEG recording electrodes and with a stimulating bipolar electrode in the left basolateral amygdaloid nucleus using the coordinates AP±3.0 mm, ML±5.9 mm, DV±6.0 mm. The after discharge threshold (ADT) for each animal was determined by administering a stimulation (frequency=60.1 Hz; duration=1000 μs) at one minute intervals until a seizure was clicited. The amplitude of the stimulation was started at 0.02 mA with increments of 0.02 mA; the stimulations were stopped when the animal experienced a seizure of ≥6 second duration, or if the amplitude of 0.40 mA was reached without the occurrence of a seizure. […] Kindling was performed twice a day for five days per week with an endpoint of 30 stimulations or until the animal presented five class V seizures (referred to as fully kindled). The seizure severity was classified from 0 (less severe) to V (most severe) according to the Racine Scale (Racine, 1972b). Sham kindled animals were handled the same way as the kindled animals, although no electrical stimulation was applied. An animal is classified as fully kindled once it has experienced 5 class V seizures.
# Drug testing was performed twice a week until all animals had received each of the seven treatments, Z944 (5 mg/kg, 10 mg/kg, 30 mg/kg and 100 mg/kg), vehicle (10% DMSO/90% Na^+-CMC or CBZ vehicle 20% DMSO/40% propylene glycol/40% saline), ETX (100 mg/kg) or CBZ (30 mg/kg). Prior to drug testing each day, animals were subjected to a maximum of three pre-drug stimulations 30 minutes apart. The animals qualified for testing on that particular day if a class IV or V seizure was elicited in at least 2 out of 3 pre-drug stimulations. Stimulations consisted of a 1 second train of 1 ms biphasic square wave pulses at a frequency of 60 Hz with current amplitude based on each animal ADT that elicited a seizure. Thirty minutes after the last pre-drug stimulation, the animals received an IP injection of one of the seven treatments in a randomized manner at a dose volume of 5 ml/kg. Six post-drug stimulations were administered to each animal, the first stimulation was given 15 minutes post drug injection (to allow brain penetration of the drugs) and the following five stimulations were delivered in 30 minutes intervals thereafter with the seizure class elicited being recorded after each post-drug stimulation. The duration of the primary and total seizures, if any, were recorded. An investigator blinded to the drug treatment analyzed all EEG recordings. Primary after discharge is the duration of the seizure elicited from the kindling stimulation. Total after discharge is the total seizure duration including any secondary seizures that occur after the primary after discharge. Primary after discharge duration and total seizure duration were recorded and averaged for the 6 post-drug stimulations.
# Animal weight and behaviour when handled were monitored for the duration of the experimental period. Additionally, animals were assessed by observation for any adverse effects of drugs on grooming, fur appearance, gait, and excretion.
# [1] = tested on: GAERS nRT T-type Ca2+ channel currents (mixed CaV3.2/CaV3.3 current); experiment: Thalamic slice whole-cell voltage-clamp recordings of nRT T-type Ca2+ channel currents; format: cell-based, rat; set-up: dose or concentration left out as unconfirmed; settings: and wash off
# GAERS nRT neuron = experiment: Thalamic slice current-clamp recordings, burst firing in nRT neurons; format: cell-based, rat; settings: 1 mM Z944; for voltage response to depolarizing current, low threshold spiking: in 600 nM TTX
# hCaV3.2 = hCaV3.2 (Homo sapiens, UniProt O95180); experiment: Inactivated channel state FLIPR assay, concentration-dependent inhibition of hCaV3.2; format: cell-based; settings: logistic function fit
# hCaV3.2, sequence (O95180 whole entry): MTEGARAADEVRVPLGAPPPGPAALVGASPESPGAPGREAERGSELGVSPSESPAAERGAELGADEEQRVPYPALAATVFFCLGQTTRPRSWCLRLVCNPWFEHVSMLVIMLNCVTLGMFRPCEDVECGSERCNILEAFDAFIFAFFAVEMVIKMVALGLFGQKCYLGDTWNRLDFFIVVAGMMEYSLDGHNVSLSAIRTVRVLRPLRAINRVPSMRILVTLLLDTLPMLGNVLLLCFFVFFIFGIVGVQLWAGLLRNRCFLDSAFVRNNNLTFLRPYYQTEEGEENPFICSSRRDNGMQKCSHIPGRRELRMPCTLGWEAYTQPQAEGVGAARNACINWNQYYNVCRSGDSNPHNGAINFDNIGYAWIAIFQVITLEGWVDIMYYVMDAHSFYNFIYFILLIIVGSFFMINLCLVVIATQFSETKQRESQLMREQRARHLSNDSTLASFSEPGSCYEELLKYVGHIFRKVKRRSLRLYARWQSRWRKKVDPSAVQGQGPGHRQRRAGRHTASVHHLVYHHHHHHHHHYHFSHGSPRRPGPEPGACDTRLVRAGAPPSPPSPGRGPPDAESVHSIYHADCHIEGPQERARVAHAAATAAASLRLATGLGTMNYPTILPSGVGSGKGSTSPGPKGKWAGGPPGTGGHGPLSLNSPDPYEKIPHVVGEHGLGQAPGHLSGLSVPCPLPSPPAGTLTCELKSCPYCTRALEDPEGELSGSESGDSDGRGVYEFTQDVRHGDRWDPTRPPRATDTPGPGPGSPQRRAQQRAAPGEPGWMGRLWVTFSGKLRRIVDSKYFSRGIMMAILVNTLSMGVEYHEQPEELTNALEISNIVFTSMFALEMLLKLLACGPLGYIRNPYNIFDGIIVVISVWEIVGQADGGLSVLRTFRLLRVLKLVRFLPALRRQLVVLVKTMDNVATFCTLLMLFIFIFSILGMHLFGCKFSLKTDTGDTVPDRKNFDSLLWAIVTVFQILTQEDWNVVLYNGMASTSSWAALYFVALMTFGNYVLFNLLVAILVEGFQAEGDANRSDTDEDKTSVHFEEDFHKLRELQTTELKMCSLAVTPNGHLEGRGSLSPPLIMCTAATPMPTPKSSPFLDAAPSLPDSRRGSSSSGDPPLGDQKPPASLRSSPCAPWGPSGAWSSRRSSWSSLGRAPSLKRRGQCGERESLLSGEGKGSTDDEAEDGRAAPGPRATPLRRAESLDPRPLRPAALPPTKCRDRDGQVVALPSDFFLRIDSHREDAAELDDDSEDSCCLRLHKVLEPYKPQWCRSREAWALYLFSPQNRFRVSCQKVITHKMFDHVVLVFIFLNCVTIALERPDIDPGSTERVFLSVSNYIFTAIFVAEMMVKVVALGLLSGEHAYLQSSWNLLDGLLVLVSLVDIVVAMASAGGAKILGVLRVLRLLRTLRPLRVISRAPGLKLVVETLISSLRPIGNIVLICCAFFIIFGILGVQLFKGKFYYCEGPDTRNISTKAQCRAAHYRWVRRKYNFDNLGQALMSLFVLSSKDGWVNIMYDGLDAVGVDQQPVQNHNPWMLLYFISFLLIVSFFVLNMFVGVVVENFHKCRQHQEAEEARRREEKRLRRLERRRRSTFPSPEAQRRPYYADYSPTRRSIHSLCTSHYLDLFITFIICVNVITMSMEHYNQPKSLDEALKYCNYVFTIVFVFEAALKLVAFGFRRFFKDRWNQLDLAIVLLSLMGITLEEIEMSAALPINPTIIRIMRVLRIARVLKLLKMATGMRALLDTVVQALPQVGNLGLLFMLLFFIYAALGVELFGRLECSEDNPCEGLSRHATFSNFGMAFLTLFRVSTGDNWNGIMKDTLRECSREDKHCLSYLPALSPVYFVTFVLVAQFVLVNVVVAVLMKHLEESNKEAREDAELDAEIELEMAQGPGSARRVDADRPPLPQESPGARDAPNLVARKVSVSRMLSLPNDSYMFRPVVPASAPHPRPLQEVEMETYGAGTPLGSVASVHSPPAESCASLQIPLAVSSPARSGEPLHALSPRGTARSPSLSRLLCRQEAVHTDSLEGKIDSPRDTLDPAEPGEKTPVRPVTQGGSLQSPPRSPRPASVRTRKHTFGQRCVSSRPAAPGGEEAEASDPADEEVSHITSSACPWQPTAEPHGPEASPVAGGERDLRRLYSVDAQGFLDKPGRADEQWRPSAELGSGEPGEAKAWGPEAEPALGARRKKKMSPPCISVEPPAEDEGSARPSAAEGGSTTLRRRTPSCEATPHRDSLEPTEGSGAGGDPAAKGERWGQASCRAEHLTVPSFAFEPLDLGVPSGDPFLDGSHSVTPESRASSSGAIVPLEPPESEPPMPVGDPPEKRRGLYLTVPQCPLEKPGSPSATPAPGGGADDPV
# [2] = tested on: GAERS (genetic rat model of GGE with absence seizures); experiment: Systemic administration in GAERS, EEG spike-and-wave discharges; format: in vivo; settings: 30 mg/kg intraperitoneal; shift from 8 Hz with ethosuximide 100 mg/kg and vehicle
# Procedure: In vivo anti-seizure activity of Z941 and Z944 was assessed in eight female epileptic GAERS (180 to 250 g and 18 to 26 weeks). Rats were implanted with extradural recording electrodes. EEG data were acquired at a sampling rate of 256 Hz unfiltered using Compumedics ProFusion digital EEG acquisition software. After 60-min habituation, rats received intraperitoneal injections of drug, and after a further 15 min, the EEG was acquired for 120 min—the test period. […] Over a 5-week period, each rat received all treatments (crossover design) in a randomized manner with a 48-hour washout period between dosing of test compound, control vehicle, and positive control articles. […] Clinical observations of neurotoxic adverse effects were assessed every 15 min throughout the 120-min test period. These were quantified according to an ordinal scale of 0 to 4: 0, no sedation, normal movement; 1, slight sedation, slow movement but alert when startled; 2, mildly sedate, reduced struggle to restraint; 3, sedate, not moving in cage, but does respond to provocation; 4, very sedate, catatonic and unable to stand when provoked. The eight scores (taken for one experiment per rat) were then averaged, and group means were calculated for each treatment. Animals were also monitored daily for general health throughout the study period (that is, weight gain and fur condition). […]
smiles,measurement,setting,value
CC(C)(C)NC(=O)CN1CCC(CNC(=O)c2cc(F)cc(Cl)c2)CC1 [Z944],neurological side effects in comparison to vehicle,"Naïve wistar rats; 60 mg/kg/day osmotic pump, day 2 to day 5",transient and minimal side effects
same,neurological side effects compared to levetiracetam treated animals,"Naïve wistar rats; Z944 60 mg/kg/day vs levetiracetam 200 mg/kg/day, day 2 and 3, p<0.05",significantly reduced neurological side effects
same,seizure class elicited (Racine scale),"fully kindled rats; IP, Z944 5, 10, 30, 100 mg/kg, CBZ 30 mg/kg, compared to vehicle",does not suppress seizures
same,primary after discharge,"fully kindled rats; IP, all four doses of Z944, ETX 100 mg/kg, CBZ 30 mg/kg, compared to vehicle (p>0.5)",did not affect the primary after discharge
same,adverse effects (sedation scale 0-4) compared to vehicle,"fully kindled rats; Z944 100 mg/kg, CBZ 30 mg/kg IP, p<0.01",significantly higher adverse effects
same,"adverse effects (sedation scale 0-4), dose dependence",fully kindled rats; Z944 5 to 100 mg/kg IP,dose dependent
same,reversibility of inhibition of GAERS nRT T-type Ca2+ channel currents,[1],nonreversible inhibition
same,"voltage response to depolarizing current, burst firing",GAERS nRT neuron; +80 pA (threshold for burst firing in control),subthreshold for firing
same,"voltage response to depolarizing current, low threshold spiking",GAERS nRT neuron; +100 pA,subthreshold for low-threshold spiking
same,"voltage response to depolarizing current, burst firing",GAERS nRT neuron; +120 pA (suprathreshold for burst firing in control),threshold for tonic firing
same,"voltage response to depolarizing current, low threshold spiking",GAERS nRT neuron; +190 pA (suprathreshold in control),still subthreshold
same,slope of the concentration-inhibition curve,hCaV3.2,1.5
same,peak cycle frequency power during seizure activity (FFT),[2],6.5 Hz

# — patent publication US20210128537A1, “T-TYPE CALCIUM CHANNEL MODULATORS AND METHODS OF USE THEREOF” (Praxis Precision Medicines, inc., priority 2016, published 2021)
